Reference: US10106558B2, “Azolobenzazine compounds, compositions comprising these compounds and their use for controlling invertebrate pests” (BASF SE, priority 2015, dated 2018)

How the values were obtained:
Format in all cases: in vivo
[1] = tested on: Diamond Back Moth (Plutella xylostella); experiment: Action on diamond back moth, dipped cabbage leaves; conditions: 3rd instar larvae, 72 hours after treatment, read-out: mortality in comparison with untreated controls
Procedure, shortened: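 Cabbage leaves dipped in compound in 1:1 water:acetone with 0.01% (vol/vol) surfactant, air-dried, placed on moist filter paper and infested with ten 3rd-instar larvae. Mortality scored 72 hours after treatment; feeding damage rated on a 0-100% scale.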

[2] = tested on: Mediterranean fruitfly (Ceratitis capitata); experiment: Action on Mediterranean fruitfly, eggs on insect diet in microtiter plates; conditions: 120 h, egg and larval mortality visually assessed after 5 days, read-out: mortality in comparison with untreated controls
Procedure, shortened: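 Microtiter plates held insect diet plus 50-80 C. capitata eggs; compounds in 75% water/25% DMSO were sprayed onto the diet at several concentrations, two replicates. Plates were kept at about […] and […] relative humidity for 5 days, then egg and larval mortality was scored visually.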

[3] = tested on: vetch aphid (Megoura viciae); experiment: Action on vetch aphid, broad bean leaf disks in 24-well microtiter plates; conditions: foliar, 120 h, adult aphids on treated leaf disks, 5 days, read-out: mortality in comparison with untreated controls
Protocol: Example B7: Action on Vetch Aphid (Megoura viciae)
For evaluating control of vetch aphid (Megoura viciae) through contact or systemic means the test unit consisted of 24-well-microtiter plates containing broad bean leaf disks.
The compounds were formulated using a solution containing 75% v/v water and 25% v/v DMSO. Different concentrations of formulated compounds were sprayed onto the leaf disks at 2.5 μl, using a custom built micro atomizer, at two replications.
After application, the leaf disks were air-dried and 5-8 adult aphids placed on the leaf disks inside the microtiter plate wells. The aphids were then allowed to suck on the treated leaf disks and incubated at about 23±1° C. and about 50±5% relative humidity for 5 days. Aphid mortality and fecundity was then visually assessed.

[4] = tested on: tobacco budworm (Heliothis virescens); experiment: Action on tobacco budworm, eggs on insect diet in 96-well microtiter plates; conditions: 120 h, egg and larval mortality visually assessed after 5 days, read-out: mortality in comparison with untreated controls
Procedure, shortened: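 Compounds in 25% DMSO/water sprayed (10 μl) onto insect diet holding 15–25 H. virescens eggs, two replicates at several concentrations. Held 5 days at about 28±1 °C, 80±5% RH. Egg and larval mortality scored visually.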

[5] = tested on: Southern Armyworm (Spodoptera eridania), 2nd instar larvae; experiment: Action on southern armyworm 2nd instar larvae, sprayed lima bean plants; conditions: 96 h, 4 days after treatment, read-out: mortality in comparison with untreated controls
Procedure, shortened: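 Lima bean plants (Sieva, 1st true leaf) sprayed electrostatically with compound in 50% acetone/water plus 0.01% nonionic surfactant, dried, then infested with 10–11 larvae in bags. Held at about 25 °C, 20–40% RH; mortality and reduced feeding scored 4 days after treatment versus untreated plants.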

[6] = tested on: Orchid Thrips (Dichromothrips corbetti); experiment: Action on orchid thrips, floral-immersion technique; conditions: adult thrips, 72 hours after treatment, read-out: mortality in comparison with untreated controls
Procedure, shortened: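 Lab-colony adult thrips, about 20 per arena, were exposed to whole orchid flower petals dipped in compound diluted in 1:1 acetone:water with 0.01% v/v Kinetic HV and then dried. Arenas were held under continuous light at about 28 °C. Live thrips were counted after 3 days and percent mortality recorded at 72 h post-treatment.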

[7] = tested on: boll weevil (Anthonomus grandis); experiment: Action on boll weevil, eggs on insect diet in 96-well microtiter plates; conditions: 120 h, 800 ppm, egg and larval mortality visually assessed after 5 days, read-out: mortality in comparison with untreated controls
Procedure, shortened: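 Diet in 96-well plates was infested with 5-10 A. grandis eggs and sprayed with compounds formulated in 75% water/25% DMSO, at several concentrations, in two replicates. Plates were held 5 days at about 25±1 °C and 75±5% RH. Egg and larval mortality was then scored visually.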

Cc1ccc(C(C)C)c(N2C(=O)CS/C2=N\N=C\c2ccc3c(ccc4c3ncn4-c3ccc(OC(F)(F)F)cc3)n2)c1 [Compound C-6, (2Z)-3-(2-isopropyl-5-methyl-phenyl)-2-[(E)-[3-[4-(trifluoromethoxy)phenyl]imidazo[4,5-f]quinolin-7-yl]methylenehydrazono]thiazolidin-4-one]
≥ 75%: mortality at 500 ppm [1] | mortality at 800 ppm [2] | mortality at 800 ppm [3] | mortality at 800 ppm [4] | mortality at 500 ppm [5] | mortality at 500 ppm [6] | mortality at 800 ppm [7]
